A word on the IC50: it is the concentration needed to halve the response being measured.

Two molecules from patent publication US10202371B2, “Oxazolidin-2-one-pyrimidine derivatives and the use thereof as phosphatidylinositol-3-kinase inhibitors” (Novartis AG, priority 2012, dated 2019) can be followed below.

One data set relates to SCL-1 cells. Put plainly: BrdU cell proliferation assay SCL-1. It counts as cell-based. The conditions noted are these: Homo sapiens, BrdU incorporation. An excerpt:
(§1) The SCL-1 and SCC12B2 are human cutaneous squamous cell carcinoma (SCC) cell lines derived from naturally occurring, poorly differentiated SCCs. The SCL-1 cell line was originally established in the lab of N. Fusenig at the Cancer Research Center in Heidelberg, and its growth characteristics in vitro in comparison to normal keratinocytes were described previously (Neely et al 1991). The SCC12B2 cell line was established as described previously (Rheinwald & Beckett 1981) from the facial skin of a transplant patient who received immunosuppressive therapy for 7 years. The human SCC cell line Detroit562 was obtained from American Tissue Culture Collection (ATCC). Detroit562 is referred to as Head & Neck squamous cell carcinomas (HNSCC) and was derived from a pharyngeal SCC tumor. […]
(§2) Cells of SCC or keratinocyte lines (Detroit562, SCC12B2, SCL1, HaCaT) were used for the proliferation assays when they had reached about 80% to 90% confluency. Cells were then harvested after trypsin-mediated dislodgement from culture flasks, washed in culture medium containing 10% FCS, counted in a hemocytometer and diluted complete culture medium with 5% FCS to obtain a cell density of 5×10^4 cells/ml. […] The cell proliferation was determined on the basis of incorporation of bromodesoxy-uridin (BrdU) into cellular DNA using the chemiluminescent BrdU Cell Proliferation ELISA (Roche article #11 669 915 001). […]
Background: Dividing cells build labelled thymidine or BrdU into new DNA.

For the next data set, the system named is Detroit562 cells. As to the kind of experiment: BrdU cell proliferation assay Detroit562. It counts as cell-based. The conditions noted are these: Homo sapiens, Detroit 562, BrdU incorporation.
From the text: as §1, §2

The nature of data set [1]: In vitro skin penetration and permeation, pig skin in Franz-type diffusion cells. The conditions noted are these: for Permeation rate: pig skin, 48 hours exposure. Format: in vitro ADME. Here is the method: The compound was applied as 0.5% solutions in propylene glycol mixed with either ethanol or oleylalcohol to pig skin mounted in static Franz-type diffusion cells. At the end of a 48 hours exposure time, drug concentrations were measured in the skin (after removal of stratum corneum) and in the receiver. The receiver solution is a mixture of two volume parts of phosphate-buffered saline (PBS) and one volume part of fetal calf serum (FCS).

In another data set the target is human PI3Kα (Homo sapiens (Human), UniProt P42336). As to the kind of experiment: Biochemical assay PI3Kalpha (KinaseGlo luminescence). The conditions noted are these: 1 μM ATP. The text has this: Cancer Ther. accepted). […] (L-alpha-phosphatidylinositol (PI), Liver, Bovine) were obtained from Avanti Polar Lipid (Cat. […] (Avanti, Cat. No. 840046X) or L-α-phosphatidylinositol (PI) was obtained from Avanti Polar Lipid (Cat. […] Luminescence is a well established readout to determine ATP concentrations and can thus be used to follow the activity of many kinases regardless of their substrate. The Kinase Glo Luminescent Kinase Assay (Promega, Madison/WI, USA) is a homogeneous HTS method of measuring kinase activity by quantifying the amount of ATP remaining in solution following a kinase reaction. 50 nL of compound dilutions were dispensed onto black 384-well low volume Non Binding Styrene (NBS) plates (Costar Cat. No. […] L-α-phosphatidylinositol (PI), provided as 10 mg/ml solution in methanol, was transferred into a glass tube and dried under nitrogen beam. […] NVP-BGT226 was used as a reference compound and included in all assay plates in the form of 16 dilution points in duplicate. […] All fits were performed with the program XLfit4 (ID Business Solutions, Guildford, UK).
Sequence of human PI3Kα (P42336 21-1068): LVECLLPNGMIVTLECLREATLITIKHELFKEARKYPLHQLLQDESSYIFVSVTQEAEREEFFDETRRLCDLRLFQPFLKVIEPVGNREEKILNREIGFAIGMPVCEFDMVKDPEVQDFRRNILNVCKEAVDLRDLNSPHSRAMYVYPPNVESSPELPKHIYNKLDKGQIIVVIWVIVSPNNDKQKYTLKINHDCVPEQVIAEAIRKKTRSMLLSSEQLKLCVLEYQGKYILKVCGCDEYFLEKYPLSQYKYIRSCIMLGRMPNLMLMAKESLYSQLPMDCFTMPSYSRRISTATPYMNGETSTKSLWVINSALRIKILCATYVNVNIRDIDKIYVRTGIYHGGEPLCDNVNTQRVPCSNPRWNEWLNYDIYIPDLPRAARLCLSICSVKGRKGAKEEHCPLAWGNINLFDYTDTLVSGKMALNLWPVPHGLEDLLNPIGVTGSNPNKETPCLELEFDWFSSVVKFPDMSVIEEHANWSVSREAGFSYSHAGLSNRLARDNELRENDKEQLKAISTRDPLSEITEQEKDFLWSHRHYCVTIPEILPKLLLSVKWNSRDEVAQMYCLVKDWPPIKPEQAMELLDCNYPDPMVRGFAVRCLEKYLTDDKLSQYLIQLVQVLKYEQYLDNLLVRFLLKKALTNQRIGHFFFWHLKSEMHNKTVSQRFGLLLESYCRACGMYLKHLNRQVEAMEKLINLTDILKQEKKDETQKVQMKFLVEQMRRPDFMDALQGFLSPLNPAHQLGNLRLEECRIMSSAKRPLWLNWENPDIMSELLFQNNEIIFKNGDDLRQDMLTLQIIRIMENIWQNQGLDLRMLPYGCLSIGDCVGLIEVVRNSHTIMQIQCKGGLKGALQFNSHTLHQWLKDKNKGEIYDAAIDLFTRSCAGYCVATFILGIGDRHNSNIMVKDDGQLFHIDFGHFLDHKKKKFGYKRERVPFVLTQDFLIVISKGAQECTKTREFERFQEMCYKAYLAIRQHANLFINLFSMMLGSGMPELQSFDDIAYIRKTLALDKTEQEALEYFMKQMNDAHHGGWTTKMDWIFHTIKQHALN
In general terms: In Kinase-Glo more light means more ATP remaining.

Read-outs that look alike come from different tables or passages of the source.

For the molecule `C[C@H]1[C@H](c2nccs2)OC(=O)N1c1cc(-c2cnc(N)nc2C(F)(F)F)nc(N2CCOCC2)n1` [Example 1, (4S,5R)-3-(2′-Amino-2-morpholin-4-yl-4′-trifluoromethyl-[4,5′]bipyrimidinyl-6-yl)-4-methyl-5-thiazol-2-yl-oxazolidin-2-one], the IC50 with SCL-1 cells (measurement #1, read-out: anti-proliferative IC50 SCL-1 measurement #1) is 0.351 µM; with SCL-1 cells (measurement #2, read-out: anti-proliferative IC50 SCL-1 measurement #2) it was 0.268 µM; with Detroit562 cells (measurement #1, read-out: anti-proliferative IC50 Detroit562 measurement #1), 0.598 µM; with Detroit562 cells (measurement #2, read-out: anti-proliferative IC50 Detroit562 measurement #2) it was 0.44 µM. The “permeation rate through pig skin (in words)” value in data set [1] (pig skin in vitro) is “low”. The Permeation rate in data set [1] (0.5% in PG + ethanol (7 + 3)) worked out at 1.0 ± 0.3 ng/cm^2/hr; in data set [1] (0.5% in PG/OA (9 + 1)), 301.1 ± 129.5 ng/cm^2/hr.

As for `Nc1ncc(-c2cc(N3C(=O)O[C@@H](c4ccccc4)[C@@H]3CO)nc(N3CCOCC3)n2)c(C(F)(F)F)n1` [Example 10], the PI3Ka/IC50 at human PI3Kα is given as 0.009 umol I-1.
